Experimental data taken from US20060148763A1, “Compounds and methods for regulating triglyceride levels” (priority 2005, published 2006).

How the values were obtained:
Assay type in all cases: in vivo, human
serum triglyceride (TG) = assay: Phase II cross-over study of P5P alone and with lisinopril in hypertensive type 2 diabetic patients: triglycerides; details: for TG change, 16 wk vs. baseline (b): Lisinopril/P5P therapy, patients with TG ≧1.7 mmol/L; for reduction in serum TG levels vs. baseline: patients with elevated TG (>1.7 mmol/L) at baseline
Experimental: (§1) Objective—A phase II clinical study was conducted to determine the effects of pyridoxal-5′-phosphate in combination with lisinopril on blood pressure and metabolic function in hypertensive patients with type 2 diabetes.
(§2) Summary of Study Design—The phase II study was a randomized, parallel group, cross-over, double-blinded to study medication, placebo-controlled comparison of P5P BID at total daily doses of 100, 300, or 1000 mg alone and in combination with 20 mg lisinopril given once daily (QD). In order to protect against antihypertensive and metabolic carry-over effects of lisinopril, all patients were randomized in 2 different treatment sequences. Patients randomized in the first treatment sequence receive an 8-week treatment with lisinopril 20 mg and P5P (or placebo) and then an 8-week treatment with P5P alone (or placebo). Patients randomized in the second treatment sequence receive an 8-week treatment with P5P alone and then an 8-week treatment with lisinopril 20 mg and P5P (or placebo). In each treatment sequence, all patients were randomized to P5P at the different prespecified dosages.
(§3) Mean trough sitting and standing BP were measured at each visit. Twenty-four hour ambulatory BP monitoring (ABPM) were performed at Visit 2 prior to randomization (end of washout period) and after week 8 (Visit 5) and week 16 (Visit 8) weeks of active therapy. Laboratory tests were performed at screening (Visit 1), prior to randomization (Visit 2), at week 2 (Visit 3a), week 8 (Visit 5), week 10 (Visit 6a), and at week 16 (Visit 8).
Treatment Plan—Two to Four-week Washout (Baseline) Period. Patients were instructed on the proper procedure for discontinuing their current antihypertensive medications (discontinuation or tapering) according to the manufacturer's label specifications. If a patient's current antihypertensive treatment needed to be tapered earlier, the Investigator complied with the corresponding timelines before randomization. With the exception of any tapering off of prior therapy, if any, no other anti-hypertensive medication was given to the patient during the washout period. Patients continued any existing diabetic treatment with sulfonylureas (tolbutamide, tolazamide, acetohexamide, chlorpropamide and second generation glyburide, glipizide, glimepiride), D-Phenylalanine derivatives, metformin, thiazolidinediones, acarbose, miglitol, and/or insulin throughout the study. Patients received placebo to be taken twice daily during the washout period. Standard diabetic medication was maintained throughout study. The duration of the washout period was two to four weeks, at the discretion of the Investigator taking into consideration whether the patient's blood pressure had stabilized following removal of any prior antihypertensive medication. […]

Non-HDL = assay: Phase II cross-over study of P5P alone and with lisinopril in hypertensive type 2 diabetic patients: non-HDL
Experimental: as §1, §2, §3
(§4) Treatment Plan—Two to Four-week Washout (Baseline) Period. Patients were instructed on the proper procedure for discontinuing their current antihypertensive medications (discontinuation or tapering) according to the manufacturer's label specifications. If a patient's current antihypertensive treatment needed to be tapered earlier, the Investigator complied with the corresponding timelines before randomization. With the exception of any tapering off of prior therapy, if any, no other anti-hypertensive medication was given to the patient during the washout period. Patients continued any existing diabetic treatment with sulfonylureas (tolbutamide, tolazamide, acetohexamide, chlorpropamide and second generation glyburide, glipizide, glimepiride), D-Phenylalanine derivatives, metformin, thiazolidinediones, acarbose, miglitol, and/or insulin throughout the study. Patients received placebo to be taken twice daily during the washout period. Standard diabetic medication was maintained throughout study. The duration of the washout period was two to four weeks, at the discretion of the Investigator taking into consideration whether the patient's blood pressure had stabilized following removal of any prior antihypertensive medication.
(§5) Active (Study) Medication Period: After the washout period, eligible patients were randomized to one of the 2 following sequences of treatment for 16 weeks.
(§6) Week 0 to 8: Treatment period (P5P alone (or placebo) or P5P (or placebo) and Lisinopril)
(§7) Week 8 to 16: Treatment period (P5P alone (or placebo) or P5P (or placebo) and Lisinopril)
(§8) Study Groups—The patients were randomized into one of […] groups:
(§9) Sequence 1 P5P 300 mg and then P5P 300 mg+Lisinopril 20 mg
(§10) Sequence 2 P5P 300 mg+Lisinopril 20 mg and then P5P 300 mg alone
(§11) All medications were taken at the same time each day during washout and treatment periods:
(§12) Other Efficacy Endpoints—Analytical efficacy measurements, including markers of metabolic function (insulinemia, fasting serum glucose, glycated hemoglobin, LDL, HDL, non-HDL and triglycerides), endothelial function (ICAM-1, VCAM-1, E-selectin and albuminuria), kidney function (creatinine, glomular filtration rate), CRP and homocysteine, were conducted on blood samples taken on Visits 2, 5 and 8. Samples were sent to a central laboratory for analysis.

[1] = system: total serum cholesterol (TC); assay: Phase II cross-over study of P5P alone and with lisinopril in hypertensive type 2 diabetic patients: total cholesterol; details: for reduction in serum TC levels (placebo corrected): patients having elevated TC levels (>5.15 mmol/L)
Experimental: as §1, §2, §3, §4, §5, §6, §7, §8, §9, §10, §11, §12

[2] = P5P 300 mg, patients with Non HDL >3.34 mmol/L
[3] = P5P 300 mg, patients with TC >5.18 mmol/L

Structure (SMILES): Cc1ncc(COP(=O)(O)O)c(C=O)c1O [P5P, pyridoxal-5′-phosphate]
- TG change, 16 wk vs. baseline (b) (serum triglyceride (TG); P5P 300 mg daily (BID)): −0.70 mmol/L (p = 0.04)b
- reduction in serum TG levels vs. baseline (serum triglyceride (TG); P5P 300 mg): about 0.70 mmol/L
- TG change, 16 wk vs. baseline (b) (serum triglyceride (TG); P5P 1000 mg daily (BID)): −0.56 mmol/L (p = 0.12)b
- reduction in serum TG levels vs. baseline (serum triglyceride (TG); P5P 1000 mg): about 0.56 mmol/L
- Non-HDL change vs baseline (b) (Non-HDL; P5P 300 mg, non-stratified, calculated number, not measured in plasma): −0.21 mmol/L (p=)b
- Non-HDL change (Non-HDL; [2]): −0.68 mmol/L (p = 0.029)
- Non-HDL reduction vs baseline (b) (Non-HDL; [2]): (15%)b
- reduction in non-HDL compared to baseline (Non-HDL; P5P 300 mg, patients with non-HDL >3.34 mmol/L at baseline): 0.68 mmol/L
- Non-HDL change vs baseline (b) (Non-HDL; P5P 1000 mg, non-stratified, calculated number, not measured in plasma): −0.26 mmol/L (p = 0.089)b
- Non-HDL change vs baseline (b) (Non-HDL; P5P 1000 mg, patients with Non HDL >3.34 mmol/L): −0.71 mmol/L (p = 0.007)b
- decrease in non-HDL vs. baseline (Non-HDL; P5P 1000 mg, patients with non-HDL. 3.34 mmol/L): 0.71 mmol/L
- TC change vs baseline (b) ([1]; P5P 300 mg, TC non-stratified): −0.18 mmol/L (p = 0.273)b
- reduction in serum TC levels (placebo corrected) ([1]; P5P 300 mg): about 0.91 mmol/L
- TC change [1, 3]: −0.91 mmol/L (p = 0.02)
- TC reduction vs baseline (b) [1, 3]: (15.7%)b
- TC change vs baseline (b) ([1]; P5P 1000 mg, TC non-stratified): −0.29 mmol/L (p = 0.075)b
- reduction in serum TC levels (placebo corrected) ([1]; P5P 1000 mg): about 1.03 mmol/L
- TC change vs baseline (b) ([1]; P5P 1000 mg, patients with TC >5.18 mmol/L): −1.03 mmol/L (p = 0.001)b
